In paper PMC10622552, “Engineering a scalable and orthogonal platform for synthetic communication in mammalian cells” (Nature Communications, 2023):

Columns and labels:
[1] = tested on: A-typeJAK/STAT receptor in HEK293T receiver cells; test: Sender-receiver co-culture, SEAP activity (Fig. 6b, S30); format: cell-based, human; details: 1.5 × 10^5 receivers + 6 × 10^5 senders; 1 μg/mL dox; 48 h, 37 °C; independent triplicates
Excerpt: In detail, we observe a 6.6-fold increase in SEAP activity for receiver cells cultured with senders in the presence of dox compared to a co-culture with senders in the absence of the inducer and 9.7-fold increase compared to receiver cells cultured with control 293S GnTi^- cells; a response that is similar to previously engineered paracrine synthetic communication systems[31],[33],[34],[36],[37],[42], ranging from 1.5- to 20-fold in performance. To understand the origin of this activation level, we plated 4.5 × 10^5 sender cells incubated with doxycycline and measured 0.14 μM of secreted SUMO-tagged A’-A’ dipeptide after 48 h, by means of western blotting using an anti-Smt3 antibody (“Methods” and Supplementary Fig. S29). […]
SEAP concentration in cell culture medium was quantified in terms of absorbance increase due to para-nitrophenylphosphate (pNPP), using a commercially available SEAP assay kit (NBP2-25285, Novus Biologicals). […] Absorbance values were measured at 405 nm, at a controlled temperature of 25 °C, for 60 minutes, using a Tecan Spark 10 M plate reader (Tecan). […] Absorbance units are converted to amount of substrate conversion and SEAP activity is calculated from the slope of the time trace and expressed in units per litre (U/L). […]

[2] = tested on: HEK293S GnTi- TetR sender cells; test: Flow cytometry of EmGFP-positive sender cells with and without doxycycline; format: cell-based, human; details: HEK293S GnTi- TetR senders prior to sorting; with dox
Description: HEK293T cells (ATCC® CRL3216™) or human embryonic kidney 293 S lacking N-acetylglucosaminyltransferase I and expressing the Tet repressor protein (HEK293S GnTI^- TetR; obtained from the group of N. Callewaert at the VIB-UGent Center for Medical Biotechnology; nico.callewaert@ugent.vib.be)[75] were plated in 24-well plates (Greiner) and upon reaching 10-20% confluency were transduced with lentivirus harboring the SUMO-tagged A’-A’ peptide with linker I2 (Supplementary Fig. S26) or SUMO-tagged A’-Γ or Γ’-A’ peptide with linker l4 (Supplementary Fig. S31), under the control of the major immediate–early (MIE) human cytomegalovirus (CMV) enhancer and promoter and two TetO operator sequences[69] followed by an internal ribosome entry site (IRES) from encephalomyocarditis virus (EMCV) controlling the expression of an emerald green fluorescent protein (EmGFP). In total, 50–100 μL lentivirus was added to the cells, containing transduction medium (DMEM (41966; Thermo Fisher Scientific) supplemented with 10% (v/v) heat-inactivated FBS (S-FBS-SA-015; Serana)). […] Cells were bulk-sorted or sorted as single cells for EmGFP by fluorescence-activated cell sorting (FACS) in 1:1 conditioned to growth media (conditioned medium being medium that has been in contact with cells for 24 hours and subsequently harvested and filtered with a 0.45-μm syringe filter (Merck)). […]

C[C@H]1c2cccc(O)c2C(=O)C2=C(O)[C@]3(O)C(=O)C(C(N)=O)=C(O)[C@@H](N(C)C)[C@@H]3[C@@H](O)[C@@H]21 [doxycycline]
fold increase in SEAP activity vs co-culture without inducer [1]: 6.6 fold
fold increase in SEAP activity vs receivers with control 293S GnTi- cells [1]: 9.7 fold
EmGFP positive cells upon doxycycline, prior to sorting [2]: 55.0%
